In the NIST ThermoML archive (doi:10.1016/j.fluid.2018.08.012):
Numbers after ± are expanded uncertainties.

Assay: mn = molality of the nth substance listed, in mol/kg
Details: Fluid (supercritical or subcritical phases), Vibrating tube method, m1 = 0.2867

SMILES: O=O [oxygen] + O=C=O
- mass density (324.14 K, 2522.5 kPa): 45.49 ± 0.08 kg/m3
- mass density (324.14 K, 2531.8 kPa): 45.7 ± 0.08 kg/m3
- mass density (324.14 K, 4992.7 kPa): 102.94 ± 0.19 kg/m3
- mass density (324.14 K, 4998.9 kPa): 103.15 ± 0.19 kg/m3
- mass density (324.14 K, 7566.1 kPa): 190.74 ± 0.49 kg/m3
- mass density (324.14 K, 7573.3 kPa): 191.05 ± 0.49 kg/m3
- mass density (324.14 K, 10066 kPa): 353.17 ± 1.1 kg/m3
- mass density (324.14 K, 10098 kPa): 356.14 ± 1.1 kg/m3
- mass density (324.14 K, 12475 kPa): 568.33 ± 1.4 kg/m3
- mass density (324.14 K, 12572 kPa): 574.14 ± 1.4 kg/m3
- mass density (324.14 K, 15029 kPa): 672.53 ± 1.2 kg/m3
- mass density (324.14 K, 15098 kPa): 674.53 ± 1.2 kg/m3
- mass density (324.14 K, 17553 kPa): 728.46 ± 0.99 kg/m3
- mass density (324.14 K, 17623 kPa): 729.72 ± 0.99 kg/m3
- mass density (324.14 K, 20076 kPa): 766.9 ± 0.87 kg/m3
- mass density (324.14 K, 20148 kPa): 767.83 ± 0.87 kg/m3
- mass density (324.14 K, 22597 kPa): 796.51 ± 0.79 kg/m3
- mass density (324.14 K, 22667 kPa): 797.24 ± 0.8 kg/m3
- mass density (324.14 K, 25116 kPa): 820.6 ± 0.74 kg/m3
- mass density (324.14 K, 25186 kPa): 821.19 ± 0.74 kg/m3
- mass density (324.14 K, 27631 kPa): 841.02 ± 0.72 kg/m3
- mass density (324.14 K, 27694 kPa): 841.49 ± 0.72 kg/m3
- mass density (324.14 K, 30138 kPa): 858.75 ± 0.71 kg/m3
- mass density (324.14 K, 30191 kPa): 859.1 ± 0.71 kg/m3
- mass density (324.14 K, 32647 kPa): 874.55 ± 0.67 kg/m3
- mass density (324.14 K, 32683 kPa): 874.75 ± 0.67 kg/m3
- mass density (324.14 K, 35167 kPa): 888.83 ± 0.72 kg/m3
- mass density (324.14 K, 35203 kPa): 889.04 ± 0.72 kg/m3
- mass density (349.64 K, 2302.3 kPa): 37.34 ± 0.07 kg/m3
- mass density (349.64 K, 2512.6 kPa): 41.14 ± 0.07 kg/m3
- mass density (349.64 K, 4999.4 kPa): 89.28 ± 0.15 kg/m3
- mass density (349.64 K, 5056.2 kPa): 90.61 ± 0.16 kg/m3
- mass density (349.64 K, 7565.3 kPa): 151.08 ± 0.29 kg/m3
- mass density (349.64 K, 7587.3 kPa): 151.35 ± 0.29 kg/m3
- mass density (349.64 K, 10124 kPa): 230.35 ± 0.59 kg/m3
- mass density (349.64 K, 10132 kPa): 230.46 ± 0.59 kg/m3
- mass density (349.64 K, 12648 kPa): 331.76 ± 1 kg/m3
- mass density (349.64 K, 12654 kPa): 331.87 ± 1 kg/m3
- mass density (349.64 K, 15179 kPa): 445.16 ± 1.3 kg/m3
- mass density (349.64 K, 15184 kPa): 445.19 ± 1.3 kg/m3
- mass density (349.64 K, 17705 kPa): 539.74 ± 1.3 kg/m3
- mass density (349.64 K, 17709 kPa): 539.82 ± 1.3 kg/m3
- mass density (349.64 K, 20232 kPa): 608.22 ± 1.2 kg/m3
- mass density (349.64 K, 20234 kPa): 608.3 ± 1.2 kg/m3
- mass density (349.64 K, 22753 kPa): 658.24 ± 1.1 kg/m3
- mass density (349.64 K, 22754 kPa): 658.22 ± 1.1 kg/m3
- mass density (349.64 K, 25272 kPa): 696.75 ± 1 kg/m3
- mass density (349.64 K, 25273 kPa): 696.87 ± 1 kg/m3
- mass density (349.64 K, 27781 kPa): 727.9 ± 0.99 kg/m3
- mass density (349.64 K, 27787 kPa): 728.07 ± 0.99 kg/m3
- mass density (349.64 K, 30280 kPa): 753.96 ± 0.96 kg/m3
- mass density (349.64 K, 30284 kPa): 754.07 ± 0.96 kg/m3
- mass density (349.64 K, 32783 kPa): 776.37 ± 0.94 kg/m3
- mass density (349.64 K, 32788 kPa): 776.48 ± 0.94 kg/m3
- mass density (349.64 K, 35276 kPa): 795.97 ± 0.96 kg/m3
- mass density (349.64 K, 35282 kPa): 796.06 ± 0.96 kg/m3
- mass density (375.03 K, 2543.1 kPa): 38.14 ± 0.07 kg/m3
- mass density (375.03 K, 2546.2 kPa): 38.31 ± 0.07 kg/m3
- mass density (375.03 K, 5059.3 kPa): 80.85 ± 0.13 kg/m3
- mass density (375.03 K, 5060.3 kPa): 80.97 ± 0.13 kg/m3
- mass density (375.03 K, 7540.3 kPa): 129.17 ± 0.23 kg/m3
- mass density (375.03 K, 7545.1 kPa): 129.65 ± 0.23 kg/m3
- mass density (375.03 K, 10091 kPa): 186.78 ± 0.38 kg/m3
- mass density (375.03 K, 10093 kPa): 186.66 ± 0.38 kg/m3
- mass density (375.03 K, 12606 kPa): 251.89 ± 0.59 kg/m3
- mass density (375.03 K, 12615 kPa): 252.03 ± 0.59 kg/m3
- mass density (375.03 K, 15138 kPa): 324.48 ± 0.84 kg/m3
- mass density (375.03 K, 15156 kPa): 324.83 ± 0.84 kg/m3
- mass density (375.03 K, 17663 kPa): 398.41 ± 1.1 kg/m3
- mass density (375.03 K, 17683 kPa): 398.81 ± 1.1 kg/m3
- mass density (375.03 K, 20185 kPa): 466.78 ± 1.2 kg/m3
- mass density (375.03 K, 20209 kPa): 467.22 ± 1.2 kg/m3
- mass density (375.03 K, 22704 kPa): 525.43 ± 1.3 kg/m3
- mass density (375.03 K, 22730 kPa): 525.92 ± 1.3 kg/m3
- mass density (375.03 K, 25225 kPa): 574.34 ± 1.3 kg/m3
- mass density (375.03 K, 25249 kPa): 574.81 ± 1.3 kg/m3
- mass density (375.03 K, 27742 kPa): 614.94 ± 1.2 kg/m3
- mass density (375.03 K, 27764 kPa): 615.3 ± 1.2 kg/m3
- mass density (375.03 K, 30257 kPa): 648.94 ± 1.2 kg/m3
- mass density (375.03 K, 30265 kPa): 649.12 ± 1.2 kg/m3
- mass density (375.03 K, 32764 kPa): 678.12 ± 1.2 kg/m3
- mass density (375.03 K, 32769 kPa): 678.04 ± 1.2 kg/m3
- mass density (375.03 K, 35257 kPa): 703.36 ± 1.3 kg/m3
- mass density (375.03 K, 35260 kPa): 703.21 ± 1.3 kg/m3
- mass density (400.19 K, 2573.8 kPa): 35.12 ± 0.07 kg/m3
- mass density (400.19 K, 2574.8 kPa): 35.31 ± 0.07 kg/m3
- mass density (400.19 K, 5072.3 kPa): 73.3 ± 0.12 kg/m3
- mass density (400.19 K, 5100.4 kPa): 73.64 ± 0.12 kg/m3
- mass density (400.19 K, 7612.6 kPa): 115.55 ± 0.2 kg/m3
- mass density (400.19 K, 7616.5 kPa): 115.71 ± 0.2 kg/m3
- mass density (400.19 K, 10127 kPa): 162.27 ± 0.31 kg/m3
- mass density (400.19 K, 10138 kPa): 162.47 ± 0.31 kg/m3
- mass density (400.19 K, 12592 kPa): 211.79 ± 0.46 kg/m3
- mass density (400.19 K, 12600 kPa): 212.51 ± 0.46 kg/m3
- mass density (400.19 K, 15121 kPa): 265.98 ± 0.64 kg/m3
- mass density (400.19 K, 15134 kPa): 266.82 ± 0.64 kg/m3
- mass density (400.19 K, 17648 kPa): 321.85 ± 0.83 kg/m3
- mass density (400.19 K, 17661 kPa): 322.66 ± 0.83 kg/m3
- mass density (400.19 K, 20173 kPa): 377.08 ± 1 kg/m3
- mass density (400.19 K, 20186 kPa): 377.95 ± 1 kg/m3
- mass density (400.19 K, 22693 kPa): 429.17 ± 1.2 kg/m3
- mass density (400.19 K, 22707 kPa): 430.08 ± 1.2 kg/m3
- mass density (400.19 K, 25212 kPa): 476.61 ± 1.3 kg/m3
- mass density (400.19 K, 25228 kPa): 477.53 ± 1.3 kg/m3
- mass density (400.19 K, 27728 kPa): 518.93 ± 1.4 kg/m3
- mass density (400.19 K, 27743 kPa): 519.82 ± 1.4 kg/m3
- mass density (400.19 K, 30241 kPa): 556.24 ± 1.4 kg/m3
- mass density (400.19 K, 30253 kPa): 557.1 ± 1.4 kg/m3
- mass density (400.19 K, 32739 kPa): 588.97 ± 1.4 kg/m3
- mass density (400.19 K, 32757 kPa): 589.89 ± 1.4 kg/m3
- mass density (400.19 K, 35235 kPa): 617.97 ± 1.4 kg/m3
- mass density (400.19 K, 35247 kPa): 618.78 ± 1.4 kg/m3
